{"source": "patent US20150038418A1", "about": "“NATRIURETIC PEPTIDE COMPOSITIONS AND METHODS OF PREPARATION” (MEDTRONIC, INC., priority 2011, published 2015)", "system": "Prostaglandin E2 (PGE2)", "test": "Serum Prostaglandin E2 after 6 weeks subcutaneous infusion of VD in Dahl/SS rats", "assay_type": "in vivo, rat", "conditions": "4% salt diet", "description": "The pharmacodynamic effects of VD were investigated in a rat model. Forty male Dahl/SS rats were shipped to the animal facilities at PhysioGenix, Inc. (Milwaukee, Wis.). The rats were maintained on a low-salt diet and allowed to acclimate. After acclimation, animals had baseline parameters collected while on the low-salt diet. Animals were then randomly assigned to one of 4 groups (10 animals per group):\n1. Vehicle Control; low-salt diet, n=10 2. Vehicle Control; 4% salt diet, n=10 3. Vessel dilator, 100 ng/kg/min infusion of VD, 4% salt diet, n=10 4. Vessel dilator, 300 ng/kg/min infusion of VD, 4% salt diet, n=10\nLyophilized VD peptide (Bachem) was reconstituted in a Tris buffer having the same composition as the Tris buffer of Example 1. The vehicle control groups were infused with a citrate-mannitol-saline buffer (0.66 mg/mL citric acid, 6.43 mg/mL sodium citrate, 40 mg/mL mannitol, 9 mg/mL NaCl). The animals were on a Teklad 7034 (low-salt) diet or Dyets AIN-76A 4% salt diet, as indicated, throughout a 6 week course of the study and had free access to water. […]\nAlzet® minipumps (Durect, Corp.) were surgically implanted on Days 1, 15, and 29 of the study to maintain continuous vehicle or drug dispensing at the desired dose for a total period of 6 weeks. At the end of 6 weeks, the serum content of Prostaglandin E2 (PGE2) was measured.", "data": [{"substance": "VD: Vessel Dilator, ANP prohormone a.a. 31-67, EVVPPQVLSEPNEEAGAALSPLPEVPPWTGEVSPAQR (SEQ ID No. 4) (listed as Homo sapiens)", "values": [{"measurement": "PGE2 concentration in serum versus control groups", "setting": "SQ infusion 100 ng/kg·min", "value": "similar"}, {"measurement": "PGE2 concentration in serum versus control groups", "setting": "SQ infusion 300 ng/kg·min, p<0.05", "value": "significantly higher than for any of the other 3 groups"}]}]}
